Laboratory results: ChEMBL document CHEMBL1127897, “Cucurbitacin F derivatives, anti-HIV principles from cowania mexicana” (Bioorg Med Chem Lett, 1994)
Values after ≈ are worked out from the molar mass of the structure shown.

How the values were obtained:
[1] = tested on: H9; assay: Tested for anti-HIV activity against acutely infected H9 cells, activity expressed as EC50.; type: functional, cell-based; conditions: Homo sapiens
[2] = tested on: H9; assay: Concentration required for […] against acutely infected H9 cells; type: functional, cell-based; conditions: Homo sapiens
[3] = Evaluated for the therapeutic index value of the compound.; type: functional

Row | SMILES | EC50 [1] [µg/mL] | IC50 [2] [µg/mL] | Therapeutic index [3]
1 | CC(C)(O)/C=C/C(=O)[C@](C)(O)[C@H]1[C@H](O)C[C@@]2(C)[C@@H]3CC=C4[C@@H](C[C@H](O)[C@@H](O)C4(C)C)[C@]3(C)C(=O)C[C@]12C [CUCURBITACIN F] | 0.06 (≈ 0.116 µM) | 0.16 (≈ 0.308 µM) | 2.7
2 | CC(C)(O)CCC(=O)[C@](C)(O)C1[C@H](O)C(=O)[C@@]2(C)[C@@H]3CC=C4[C@@H](C[C@H](O)[C@@H](O)C4(C)C)[C@]3(C)C(=O)C[C@]12C (some centres not stated) | 2.5 (≈ 4.68 µM) | 38 (≈ 71.1 µM) | 15.2
3 | CC(C)(O)/C=C/C(=O)[C@](C)(O)C1[C@H](O)C(=O)[C@@]2(C)[C@@H]3CC=C4[C@@H](C[C@H](O)[C@@H](O)C4(C)C)[C@]3(C)C(=O)C[C@]12C (some centres not stated) | 0.3 (≈ 0.563 µM) | 5.1 (≈ 9.57 µM) | 17
4 | CC(C)(O)CCC(=O)[C@](C)(O)C1[C@H](O)C[C@@]2(C)[C@@H]3CC=C4[C@@H](C[C@H](O)[C@@H](O)C4(C)C)[C@]3(C)C(=O)C[C@]12C (some centres not stated) | 0.8 (≈ 1.54 µM) | 9.3 (≈ 17.9 µM) | 11.6
